The record followed here is US9969752B2, “Inhibitors of HIF prolyl hydroxylase” (MERCK SHARP & DOHME CORP., priority 2014, dated 2018).

pIC50: −log10 of the molar value.

The first assay deals with T1, Human HIF-PHD2 (Homo sapiens, UniProt Q9GZT9).
T1 construct: FLAG-tagged full length PHD2 expressed in and purified from baculovirus-infected Sf9 cells; FLAG; made in house; host or cells: baculovirus-infected Sf9 cells
T1 sequence (Q9GZT9 whole entry): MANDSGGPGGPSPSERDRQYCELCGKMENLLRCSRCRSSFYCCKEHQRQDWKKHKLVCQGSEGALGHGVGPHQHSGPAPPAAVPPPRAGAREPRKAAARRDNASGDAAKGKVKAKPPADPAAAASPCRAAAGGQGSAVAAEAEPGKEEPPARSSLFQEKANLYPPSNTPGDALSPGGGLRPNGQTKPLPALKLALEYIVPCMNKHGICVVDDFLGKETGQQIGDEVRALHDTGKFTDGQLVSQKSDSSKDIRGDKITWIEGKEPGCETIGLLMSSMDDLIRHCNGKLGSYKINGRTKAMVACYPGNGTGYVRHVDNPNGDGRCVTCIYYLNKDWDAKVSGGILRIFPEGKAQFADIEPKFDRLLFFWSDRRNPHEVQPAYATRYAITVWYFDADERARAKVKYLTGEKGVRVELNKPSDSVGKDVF
Put plainly: Inhibition of the hydroxylation of a HIF peptide by PHD2 (time resolved fluorescence, 384-well). It is filed as biochemical. As to conditions: FLAG-tagged full length PHD2; 0.2 μM 2-oxoglutarate, 0.5 μM HIF-1α peptide; 45 minutes at room temperature; read-out: Human HIF-PHD2 IC50.
For the molecule `N#Cc1ccc2c(O)c(C(=O)NCC(=O)O)c(=O)n3c2c1OCC3c1ccc(C(F)(F)F)cc1` (centres unmarked) [Example 178, Ammonium 2-(10-cyano-7-hydroxy-5-oxo-3-(4-(trifluoromethyl)phenyl)-3,5-dihydro-2H-[1,4]oxazino[2,3,4-ij]quinoline-6-carboxamido)acetate], the pIC50 was 8.27.

As to `CS(=O)(=O)c1ccc(C2COc3cccc4c(O)c(C(=O)NCC(=O)O)c(=O)n2c34)cc1` (centres unmarked) [Example 183, Ammonium 2-(7-hydroxy-3-(4-(methylsulfonyl)phenyl)-5-oxo-3,5-dihydro-2H-[1,4]oxazino[2,3,4-ij]quinoline-6-carboxamido)acetate], the pIC50 was 7.82.

Turning to `O=C(O)CNC(=O)c1c(O)c2cc(-c3ccn[nH]3)cc3c2n(c1=O)C(c1ccc(C(F)(F)F)cc1)CO3` (centres unmarked) [Example 185, 2-(7-Hydroxy-5-oxo-9-(1H-pyrazol-5-yl)-3-(4-(trifluoromethyl)phenyl)-3,5-dihydro-2H-[1,4]oxazino[2,3,4-ij]quinoline-6-carboxamido)acetic acid], the pIC50 was 7.92.

Still in this assay, the particulars now being: FLAG-tagged full length PHD2; 0.2 μM 2-oxoglutarate, 0.5 μM HIF-1α peptide; 45 minutes at room temperature; read-out: MS m/z (M + 1)+ and human HIF-PHD2 IC50.
Turning to `O=C(O)CNC(=O)c1c(O)c2cc(Cl)cc3c2n(c1=O)C(c1ccc(C(F)(F)F)cc1)CO3` (centres unmarked) [Example 166, 2-(9-chloro-7-hydroxy-5-oxo-3-(4-(trifluoromethyl)phenyl)-3,5-dihydro-2H-[1,4]oxazino[2,3,4-ij]quinoline-6-carboxamido)acetic acid], the pIC50 is 7.80.

With `O=C(O)CNC(=O)c1c(O)c2cccc3c2n(c1=O)C(c1cccc(C(F)(F)F)c1)CO3` (centres unmarked) [Example 167], the pIC50 is 7.13.

On to `O=C(O)CNC(=O)c1c(O)c2cccc3c2n(c1=O)C(c1nccs1)CO3` (centres unmarked) [Example 168, 2-(7-hydroxy-5-oxo-3-(thiazol-2-yl)-3,5-dihydro-2H-[1,4]oxazino[2,3,4-ij]quinoline-6-carboxamido)acetic acid], for which the pIC50 is 7.72.

With `O=C(O)CNC(=O)c1c(O)c2c(Br)ccc3c2n(c1=O)C(c1ccc(C(F)(F)F)cc1)CO3` (centres unmarked) [Example 169, 2-(8-bromo-7-hydroxy-5-oxo-3-(4-(trifluoromethyl)phenyl)-3,5-dihydro-2H-[1,4]oxazino[2,3,4-ij]quinoline-6-carboxamido)acetic acid], the pIC50 was 7.80.

Regarding `O=C(O)CNC(=O)c1c(O)c2ccc(Br)c3c2n(c1=O)C(c1cscn1)CO3` (centres unmarked) [Example 170, 2-(10-bromo-7-hydroxy-5-oxo-3-(thiazol-4-yl)-3,5-dihydro-2H-[1,4]oxazino[2,3,4-ij]quinoline-6-carboxamido)acetic acid], the pIC50 was 8.30.

Turning to `O=C(O)CNC(=O)c1c(O)c2cccc3c2n(c1=O)C(c1cnc(C(F)(F)F)s1)CO3` (centres unmarked) [Example 171, 2-(7-hydroxy-5-oxo-3-(2-(trifluoromethyl)thiazol-5-yl)-3,5-dihydro-2H-[1,4]oxazino[2,3,4-ij]quinoline-6-carboxamido)acetic acid], the pIC50 is 8.27.

In the case of `O=C(O)CNC(=O)c1c(O)c2c(F)ccc3c2n(c1=O)C(c1cncs1)CO3` (centres unmarked) [Example 172, 2-(8-fluoro-7-hydroxy-5-oxo-3-(thiazol-5-yl)-3,5-dihydro-2H-[1,4]oxazino[2,3,4-ij]quinoline-6-carboxamido)acetic acid], the pIC50 was 8.14.

For the molecule `O=C(O)CNC(=O)c1c(O)c2cccc3c2n(c1=O)C(c1cnco1)CO3` (centres unmarked) [Example 173, 2-(7-hydroxy-3-(oxazol-5-yl)-5-oxo-3,5-dihydro-2H-[1,4]oxazino[2,3,4-ij]quinoline-6-carboxamido)acetic acid], the pIC50 is 7.85.

Consider `O=C(O)CNC(=O)c1c(O)c2ccc(F)c3c2n(c1=O)C(c1cncs1)CO3` (centres unmarked) [Example 174, 2-(10-fluoro-7-hydroxy-5-oxo-3-(thiazol-5-yl)-3,5-dihydro-2H-[1,4]oxazino[2,3,4-ij]quinoline-6-carboxamido)acetic acid], for which the pIC50 is 8.42.

In the case of `O=C(O)CNC(=O)c1c(O)c2c(F)cc(F)c3c2n(c1=O)C(c1cncs1)CO3` (centres unmarked) [Example 175, 2-(8,10-difluoro-7-hydroxy-5-oxo-3-(thiazol-5-yl)-3,5-dihydro-2H-[1,4]oxazino[2,3,4-ij]quinoline-6-carboxamido)acetic acid], the pIC50 was 8.55.

For the molecule `O=C(O)CNC(=O)c1c(O)c2c(Br)ccc3c2n(c1=O)C(c1cncs1)CO3` (centres unmarked) [Example 176, 2-(8-bromo-7-hydroxy-5-oxo-3-(thiazol-5-yl)-3,5-dihydro-2H-[1,4]oxazino[2,3,4-ij]quinoline-6-carboxamido)acetic acid], the pIC50 is 8.11.

In the case of `O=C(O)CNC(=O)c1c(O)c2ccc(Br)c3c2n(c1=O)C(c1cncs1)CO3` (centres unmarked) [Example 177, 2-(10-bromo-7-hydroxy-5-oxo-3-(thiazol-5-yl)-3,5-dihydro-2H-[1,4]oxazino[2,3,4-ij]quinoline-6-carboxamido)acetic acid], the pIC50 was 8.27.

On to `N#Cc1cc2c3c(c1)c(O)c(C(=O)NCC(=O)O)c(=O)n3C(c1ccc(C(F)(F)F)cc1)CO2` (centres unmarked) [Example 179, ammonium 2-(9-cyano-7-hydroxy-5-oxo-3-(4-(trifluoromethyl)phenyl)-3,5-dihydro-2H-[1,4]oxazino[2,3,4-ij]quinoline-6-carboxamido)acetate], for which the pIC50 is 8.34.

Turning to `N#Cc1ccc2c3c1c(O)c(C(=O)NCC(=O)O)c(=O)n3C(c1ccc(C(F)(F)F)cc1)CO2` (centres unmarked) [Example 180, ammonium 2-(8-cyano-7-hydroxy-5-oxo-3-(4-(trifluoromethyl)phenyl)-3,5-dihydro-2H-[1,4]oxazino[2,3,4-ij]quinoline-6-carboxamido)acetate], the pIC50 is 8.54.

Take `N#Cc1ccc(C2COc3cccc4c(O)c(C(=O)NCC(=O)O)c(=O)n2c34)cc1` (centres unmarked) [Example 181, ammonium 2-(3-(4-cyanophenyl)-7-hydroxy-5-oxo-3,5-dihydro-2H-[1,4]oxazino[2,3,4-ij]quinoline-6-carboxamido)acetate]: the pIC50 is 8.00.

For the molecule `N#Cc1ccc2c(O)c(C(=O)NCC(=O)O)c(=O)n3c2c1OCC3c1cncs1` (centres unmarked) [Example 182, ammonium 2-(10-cyano-7-hydroxy-5-oxo-3-(thiazol-5-yl)-3,5-dihydro-2H-[1,4]oxazino[2,3,4-ij]quinoline-6-carboxamido)acetate], the pIC50 is 8.85.

For the molecule `CS(=O)(=O)c1cc2c3c(c1)c(O)c(C(=O)NCC(=O)O)c(=O)n3C(c1ccc(C(F)(F)F)cc1)CO2` (centres unmarked) [Example 184, ammonium 2-(7-hydroxy-9-(methylsulfonyl)-5-oxo-3-(4-(trifluoromethyl)phenyl)-3,5-dihydro-2H-[1,4]oxazino[2,3,4-ij]quinoline-6-carboxamido)acetate], the pIC50 is 7.72.
